Measurements published in the supplement of paper PMC10307832.

Legend:
Assay in all cases: relative viability (nuclei count vs DMSO), 5 days (fraction); higher = more cells survive
[1] = compound: CC1CC(=O)N(C2=CN=C(N=C2N1C3CCCC3)NC4=C(C=C(C=C4)C(=O)NC5CCN(CC5)C)OC)C [NPK76-II-72-1] + CC(=O)c1c(C)c2cnc(Nc3ccc(N4CCNCC4)cn3)nc2n(C2CCCC2)c1=O [Palbociclib] (partner 0.5 µM)
Method in brief: (§1)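 Lung cancer cell lines were pin-tool dosed in 1536-well plates on the day after seeding, with either a lone drug or a fixed anchor-drug dose plus five library-drug doses (not always all listed) in √10 steps. Nuclei were counted on 4× images after 5 days. Relative viability is the ratio of treated-well to vehicle-well nuclei counts, with each value a median of duplicate plates.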

NPK76-II-72-1 + AZD7762 = compound: CC1CC(=O)N(C2=CN=C(N=C2N1C3CCCC3)NC4=C(C=C(C=C4)C(=O)NC5CCN(CC5)C)OC)C [NPK76-II-72-1] + NC(=O)Nc1cc(-c2cccc(F)c2)sc1C(=O)N[C@H]1CCCNC1 [AZD7762] (partner 0.2 µM)
Method in brief: as §1

BI-2536 + Crizotinib = compound: CC[C@@H]1C(=O)N(C)c2cnc(Nc3ccc(C(=O)NC4CCN(C)CC4)cc3OC)nc2N1C1CCCC1 [BI-2536] + C[C@@H](Oc1cc(-c2cnn(C3CCNCC3)c2)cnc1N)c1c(Cl)ccc(F)c1Cl [Crizotinib] (partner 1 µM)
Method in brief: as §1

BI-2536 + Decitabine = compound: CC[C@@H]1C(=O)N(C)c2cnc(Nc3ccc(C(=O)NC4CCN(C)CC4)cc3OC)nc2N1C1CCCC1 [BI-2536] + Nc1ncn([C@H]2C[C@H](O)[C@@H](CO)O2)c(=O)n1 [Decitabine] (partner 2 µM)
Method in brief: as §1

Row | Cell Line | relative viability ([1]; first compound 0.01 µM) | relative viability ([1]; first compound 0.03162 µM) | relative viability ([1]; first compound 0.1 µM) | relative viability ([1]; first compound 0.3162 µM) | relative viability ([1]; first compound 1 µM) | relative viability (NPK76-II-72-1 + AZD7762; first compound 0.01 µM) | relative viability (NPK76-II-72-1 + AZD7762; first compound 0.03162 µM) | relative viability (NPK76-II-72-1 + AZD7762; first compound 0.1 µM) | relative viability (NPK76-II-72-1 + AZD7762; first compound 0.3162 µM) | relative viability (NPK76-II-72-1 + AZD7762; first compound 1 µM) | relative viability (BI-2536 + Crizotinib; first compound 0.01 µM) | relative viability (BI-2536 + Crizotinib; first compound 0.03162 µM) | relative viability (BI-2536 + Crizotinib; first compound 0.1 µM) | relative viability (BI-2536 + Crizotinib; first compound 0.3162 µM) | relative viability (BI-2536 + Crizotinib; first compound 1 µM) | relative viability (BI-2536 + Decitabine; first compound 0.01 µM) | relative viability (BI-2536 + Decitabine; first compound 0.03162 µM) | relative viability (BI-2536 + Decitabine; first compound 0.1 µM) | relative viability (BI-2536 + Decitabine; first compound 0.3162 µM) | relative viability (BI-2536 + Decitabine; first compound 1 µM)
1 | BEN | 0.432 | 0.478 | 0.45 | 0.509 | 0.48 | 0.77 | 0.516 | 0.791 | 0.572 | 0.786 | 0.849 | 0.6 | 0.556 | 0.243 | 0.216 | 0.699 | 0.72 | 0.429 | 0.366 | 0.421
2 | EMC-BAC-2 | 0.54 | 0.561 | 0.476 | 0.516 | 0.538 | 1.02 | 1.07 | 1.02 | 1.09 | 1.17 | 0.882 | 0.791 | 0.701 | 0.174 | 0.145 | 0.986 | 0.959 | 0.866 | 0.287 | 0.235
3 | LU99A | 0.404 | 0.437 | 0.425 | 0.393 | 0.443 | 0.425 | 0.298 | 0.503 | 0.248 | 0.402 | 0.527 | 0.526 | 0.218 | 0.212 | 0.184 | 0.796 | 1.02 | 0.717 | 0.198 | 0.25
4 | ABC-1 | 0.522 | 0.646 | 0.791 | 0.511 | 0.672 | 0.73 | 0.726 | 0.719 | 0.536 | 0.72 | 1.27 | 0.601 | 0.353 | 0.205 | 0.214 | 1.04 | 0.989 | 0.385 | 0.397 | 0.467
5 | NCI-H2170 | 0.395 | 0.358 | 0.435 | 0.285 | 0.415 | 0.799 | 0.891 | 0.892 | 0.358 | 0.975 | 1.09 | 1.13 | 0.611 | 0.244 | 0.288 | 0.466 | 0.471 | 0.431 | 0.167 | 0.181
6 | NCI-H1299 | – | – | – | – | – | – | – | – | – | – | 0.946 | 0.808 | 0.663 | 0.266 | 0.224 | – | – | – | – | –
7 | EBC-1 | – | – | – | – | – | – | – | – | – | – | 0.194 | 0.14 | 0.175 | 0.141 | 0.145 | – | – | – | – | –
8 | NCI-H2342 | 0.487 | 0.468 | 0.47 | 0.508 | 0.541 | 0.501 | 0.435 | 0.673 | 0.328 | 0.462 | – | – | – | – | – | – | 0.732 | 0.637 | 0.514 | 0.433
9 | COR-L23 | 0.264 | 0.304 | 0.314 | 0.29 | 0.342 | – | – | – | – | – | 0.684 | 0.566 | 0.226 | 0.11 | 0.0912 | 0.424 | 0.359 | 0.149 | 0.104 | 0.13
10 | COR-L 105 | 0.389 | 0.417 | 0.379 | 0.439 | 0.469 | – | – | – | – | – | 0.798 | 0.611 | 0.394 | 0.288 | 0.264 | 0.688 | 0.686 | 0.542 | 0.352 | 0.322
11 | NCI-H596 | – | – | – | – | – | 1.13 | 1.12 | 1.27 | 1.15 | 1.1 | 0.948 | 1.05 | 0.938 | 0.493 | 0.443 | 1.07 | 1.25 | 0.996 | 0.611 | 0.417
12 | NCI-H2023 | 0.365 | 0.385 | 0.343 | 0.341 | 0.439 | – | – | – | – | – | 0.582 | 0.493 | 0.346 | 0.0851 | 0.0743 | 0.186 | 0.191 | 0.112 | 0.091 | 0.084
13 | NCI-H1793 | – | 0.324 | 0.352 | 0.256 | 0.366 | – | 0.69 | 0.618 | 0.238 | 0.566 | – | – | – | – | – | 0.419 | 0.509 | 0.236 | 0.198 | 0.145
14 | NCI-H520 | 0.235 | 0.24 | 0.267 | 0.26 | 0.247 | – | – | – | – | – | 0.764 | 0.323 | 0.202 | 0.184 | 0.117 | 0.538 | 0.393 | 0.226 | 0.195 | 0.209
15 | A549 | – | – | – | – | – | – | – | – | – | – | 0.727 | 0.565 | 0.119 | 0.0589 | 0.0294 | 0.26 | 0.315 | 0.246 | 0.0414 | 0.0226
16 | NCI-H1563 | – | – | – | – | – | – | – | – | – | – | 0.902 | 0.817 | 0.822 | 0.621 | 0.561 | – | – | – | – | –
17 | NCI-H1395 | 0.627 | 0.621 | 0.621 | 0.661 | 0.616 | 0.388 | 0.341 | 0.4 | 0.396 | 0.387 | – | – | – | – | – | 0.628 | 0.509 | 0.366 | 0.337 | 0.345
18 | NCI-H2009 | 0.178 | 0.195 | 0.213 | 0.262 | 0.2 | – | – | – | – | – | 0.962 | 0.696 | 0.287 | 0.191 | 0.16 | 0.4 | 0.337 | 0.324 | 0.193 | 0.169
19 | SW 900 | 0.53 | 0.632 | 0.464 | 0.441 | 0.584 | 0.535 | 0.645 | 0.771 | 0.569 | 0.761 | – | – | – | – | – | 0.433 | 0.458 | 0.384 | 0.28 | 0.203
20 | IA-LM | – | – | – | – | – | – | – | – | – | – | 0.771 | 0.667 | 0.125 | 0.108 | 0.058 | – | – | – | – | –
21 | SK-LU-1 | 0.374 | 0.374 | 0.371 | 0.35 | 0.417 | – | – | – | – | – | 0.857 | 0.51 | 0.357 | 0.299 | 0.279 | 0.61 | 0.726 | 0.337 | 0.316 | 0.249
22 | NCI-H1703 | – | – | – | – | – | 0.144 | 0.115 | 0.174 | – | 0.0937 | 0.626 | – | 0.173 | 0.131 | 0.0732 | – | – | – | – | –
23 | NCI-H1648 | 0.23 | 0.269 | 0.24 | 0.266 | 0.279 | 0.639 | 0.563 | 0.57 | 0.66 | 0.533 | – | – | – | – | – | 0.536 | 0.451 | 0.447 | 0.195 | 0.29
